Results published in ChEMBL document CHEMBL1201862, “PubChem BioAssay data set” (2004).
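Step 1: Grow cells in 96-well plates. Step 2: Expose to compound for 48 hours at 5 concentrations. Step 3: Interpolate endpoints linearly; if unreached, use highest concentration. GI50: concentration for 50% inhibition of growth.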 Activity calls are given as the source filed them. Cut-off read from the data, not from the text of the source: active = GI50 up to about 1.1 µM and inactive = higher.

Columns and labels:
Assay in all cases: growth of human tumour cells (NCI), 48 h
HT-29 = test system: HT-29
OVCAR-3 = test system: OVCAR-3
HL-60 = test system: HL-60
KM12 = test system: KM12
SK-MEL-2 = test system: SK-MEL-2
OVCAR-5 = test system: OVCAR-5
SW-620 = test system: SW-620
SF-268 = test system: SF-268
ACHN = test system: ACHN
786-0 = test system: 786-0
KM-20L2 = test system: KM-20L2
M14 = test system: M14
SNB-75 = test system: SNB-75
UACC-257 = test system: UACC-257
MOLT-4 = test system: MOLT-4
SR = test system: SR
Hs-578T = test system: Hs-578T
NCI/ADR-RES = test system: NCI/ADR-RES
A498 = test system: A498
MDA-MB-231 = test system: MDA-MB-231

Measured: GI50

c1ccc(CCCC2Sc3cccc4cccc(c34)S2)cc1
inactive: HT-29 78.9 µM | OVCAR-3 > 100 µM | HL-60 64.6 µM | KM12 > 100 µM | SK-MEL-2 > 100 µM | OVCAR-5 > 100 µM | SW-620 > 100 µM | SF-268 > 100 µM | ACHN > 100 µM | 786-0 > 100 µM | KM-20L2 54.7 µM | M14 > 100 µM | SNB-75 > 100 µM

COc1cc2c(cc1OC)/C(=C\c1ccccc1N)C(=O)OC2
inactive: HT-29 11.8 µM | OVCAR-3 18.7 µM | UACC-257 15.1 µM | HL-60 3.3 µM | KM12 13.9 µM | MOLT-4 2.31 µM | SK-MEL-2 12.1 µM | OVCAR-5 20 µM | SW-620 4 µM | SF-268 20.9 µM | ACHN 18.3 µM | 786-0 3.07 µM | KM-20L2 19.1 µM | M14 19.3 µM | SNB-75 10.3 µM

C=C(Br)C(C)(Br)CCC(Br)C(C)(C)Cl (configuration not stated)
inactive: HT-29 17.9 µM | OVCAR-3 18.6 µM | SR 3.5 µM | UACC-257 19.1 µM | HL-60 2.81 µM | Hs-578T 26.4 µM | NCI/ADR-RES 23.7 µM | KM12 16.6 µM | MOLT-4 2.54 µM | SK-MEL-2 25.7 µM | OVCAR-5 18.8 µM | SW-620 13 µM | SF-268 17.9 µM | ACHN 19.1 µM | A498 20.8 µM | 786-0 17.8 µM | MDA-MB-231 17.8 µM | M14 17.3 µM | SNB-75 16.5 µM

COc1cc(C=O)cc(/C=N/c2ccccn2)c1O
inactive: HT-29 11.5 µM | OVCAR-3 19.8 µM | SR 2.18 µM | UACC-257 8.59 µM | HL-60 33.4 µM | Hs-578T 4.63 µM | NCI/ADR-RES 10.8 µM | KM12 24.5 µM | MOLT-4 24.5 µM | SK-MEL-2 2.57 µM | OVCAR-5 15.8 µM | SW-620 31.6 µM | SF-268 3.37 µM | ACHN 2.34 µM | A498 9.64 µM | 786-0 7.36 µM | MDA-MB-231 9.02 µM | M14 6.87 µM | SNB-75 3.78 µM

CC(=O)c1cc(CC2Cc3cc4c(cc3C2=O)CCC4)cc2c1CCC2 (configuration not stated)
inactive: HT-29 48.2 µM | OVCAR-3 90.2 µM | SR 29.9 µM | UACC-257 29.9 µM | HL-60 8.65 µM | Hs-578T 35.5 µM | NCI/ADR-RES 26.2 µM | KM12 37.2 µM | MOLT-4 18.5 µM | SK-MEL-2 71.1 µM | OVCAR-5 > 100 µM | SW-620 49.5 µM | SF-268 83.9 µM | ACHN 92.7 µM | A498 84.7 µM | 786-0 80 µM | MDA-MB-231 29.7 µM | M14 69.7 µM | SNB-75 33.3 µM

COc1ccc(NC(=O)N(C)CC2(O)CCC(C(C)(C)C)CC2)cc1 (configuration not stated)
inactive: HT-29 32.5 µM | OVCAR-3 23 µM | SR > 100 µM | UACC-257 33.9 µM | HL-60 63.5 µM | Hs-578T 33.9 µM | NCI/ADR-RES 54.5 µM | KM12 42.7 µM | MOLT-4 52.6 µM | SK-MEL-2 63.8 µM | OVCAR-5 > 100 µM | SW-620 > 100 µM | SF-268 > 100 µM | ACHN > 100 µM | A498 81.3 µM | 786-0 > 100 µM | MDA-MB-231 41.8 µM | M14 > 100 µM | SNB-75 52.6 µM

Sc1nnc(SCc2ccccc2Cl)c2nc[nH]c12
inactive: HT-29 > 100 µM | OVCAR-3 > 100 µM | SR > 100 µM | UACC-257 > 100 µM | HL-60 > 100 µM | Hs-578T > 100 µM | NCI/ADR-RES > 100 µM | KM12 > 100 µM | MOLT-4 > 100 µM | SK-MEL-2 > 100 µM | OVCAR-5 > 100 µM | SW-620 > 100 µM | SF-268 > 100 µM | ACHN > 100 µM | A498 > 100 µM | 786-0 > 100 µM | MDA-MB-231 > 100 µM | M14 > 100 µM | SNB-75 > 100 µM

N=C(N)N/N=C/c1c(Cl)nc2sccn12
inactive: HT-29 17.3 µM | OVCAR-3 24.1 µM | SR 22.9 µM | UACC-257 23.4 µM | HL-60 17.4 µM | Hs-578T 18.2 µM | NCI/ADR-RES 55.2 µM | KM12 16.4 µM | MOLT-4 16.4 µM | SK-MEL-2 > 10 µM | OVCAR-5 28.8 µM | SW-620 18 µM | SF-268 24.2 µM | ACHN 16.8 µM | A498 28.2 µM | 786-0 17.1 µM | MDA-MB-231 33.6 µM | M14 15.5 µM | SNB-75 38.1 µM
